Here are results for two compounds from ChEMBL document CHEMBL1152066, “7,10-Bis(2-mercapto-2-methyl)propyl-7,10-diazapalmitic acid: a novel, N2S2 ligand for technetium-99m” (Bioorg Med Chem Lett, 1996).

Common to all, as to assay type: ADME, organism-based
Common to all, as to conditions: in vivo

The subject of data set [1] is Rattus norvegicus. The data set is described as follows: (§1) Distribution of radioactivity in stomach of fasted rats following concomitant intravenous administration of [99mTc]7. value expressed as % injected dose / organ.
Data set [2] relates to Rattus norvegicus. The data set can be described thus: Distribution of radioactivity in heart of fasted rats following concomitant intravenous administration of [99mTc]-7. value expressed as % injected dose / organ.
Data set [3] has as its system Rattus norvegicus. The data set can be described thus: Distribution of radioactivity in lung of fasted rats following concomitant intravenous administration of [99mTc]7. value expressed as % injected dose / organ.
Data set [4] relates to Rattus norvegicus. Described as §1. This is another data set of the same source.
Data set [5] concerns Rattus norvegicus. The data set can be described thus: Distribution of radioactivity in kidney of fasted rats following concomitant intravenous administration of [99mTc]7. value expressed as % injected dose / organ.
Data set [6] has as its system Rattus norvegicus. The data set can be described thus: Distribution of radioactivity in spleen of fasted rats following concomitant intravenous administration of [99mTc]-7. value expressed as % injected dose / organ.

Values joined by “and” are separate entries in the source; they are usually repeats but may differ in a detail not shown here. Equal values may be shown once.

Turning to `O=C(O)CCCCCCCCCCCCCCc1ccc([125I])cc1`, the Injected dose/organ with Rattus norvegicus [1] is 0.27%; with Rattus norvegicus [2], 1.86% and 2.94%; in the data set on Rattus norvegicus [3], 1.25% and 0.77%; with Rattus norvegicus [4], 0.42%; in the data set on Rattus norvegicus [5], 2.07% and 0.71%; in the data set on Rattus norvegicus [6], 0.54% and 0.57%.

Consider `CCCCCCN(CCN(CCCCCC(=O)O)CC(C)(C)S)CC(C)(C)S`, for which the Injected dose/organ was 0.27% and 0.18% with Rattus norvegicus [1]; 0.22% and 0.56% in the data set on Rattus norvegicus [2]; 1.19% and 0.73% in the data set with Rattus norvegicus [3]; 3.42% and 1.18% with Rattus norvegicus [5]; 0.7% and 0.78% with Rattus norvegicus [6].
